Results reported in US20080009418A1, “Selective Inhibitors” (Alchemia LTD., priority 2004, published 2008).

Legend:
Settings in all cases: compound at 10 μM
Human δ-opioid (DOP) = molecular target: T1, Human δ-opioid (DOP) (Homo sapiens, UniProt P41143); assay: Radioligand binding, human δ-opioid (DOP) membranes, FlashPlate, [3H]-Bremazocine
T1 construct: purchased Perkin Elmer Biosignal
In short: (§1)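 Cloned human receptor membranes were coated onto FlashPlate wells and incubated with radioligand and compound (added from a 0.5 mM DMSO daughter plate) for 1 hour at room temperature in the dark. Scintillation counting gave percent inhibition, with DMSO defining total and reference ligand defining non-specific binding.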

Human κ-Opioid (KOP) = molecular target: T2, Human κ-Opioid (KOP) (Homo sapiens, UniProt P41145); assay: Radioligand binding, human κ-opioid (KOP) membranes, filtration, [3H]-Diprenorphine
T2 construct: purchased Perkin Elmer Biosignal
T2 sequence (P41145 whole entry): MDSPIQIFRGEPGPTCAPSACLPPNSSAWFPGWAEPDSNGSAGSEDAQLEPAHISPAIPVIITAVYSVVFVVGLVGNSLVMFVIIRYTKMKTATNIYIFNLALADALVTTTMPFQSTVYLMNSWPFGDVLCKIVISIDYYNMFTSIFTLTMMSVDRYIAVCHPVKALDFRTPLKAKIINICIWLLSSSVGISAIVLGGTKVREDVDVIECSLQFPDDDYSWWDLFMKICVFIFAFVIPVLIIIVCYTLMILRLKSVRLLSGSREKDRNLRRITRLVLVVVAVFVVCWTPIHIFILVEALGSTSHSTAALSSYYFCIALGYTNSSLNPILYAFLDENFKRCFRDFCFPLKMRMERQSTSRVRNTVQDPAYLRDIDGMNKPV
In short: (§2)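 Percent inhibition of radioligand binding measured on recombinant human membranes: NK1 with [125I]-Substance P, KOP with [3H]-Diprenorphine. Incubation 1 h at room temperature, then harvest onto 0.3% PEI-soaked filters, cold Tris-HCl pH 7.4 washes and scintillation counting; non-specific binding from reference ligand wells.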

Human Melanocortin (MC3) = molecular target: T3, Human Melanocortin (MC3) (Homo sapiens, UniProt P41968); assay: Radioligand binding, human melanocortin MC3 membranes, FlashPlate, [125I]-NDP-αMSH
T3 construct: purchased Perkin Elmer Biosignal
T3 sequence (P41968 whole entry): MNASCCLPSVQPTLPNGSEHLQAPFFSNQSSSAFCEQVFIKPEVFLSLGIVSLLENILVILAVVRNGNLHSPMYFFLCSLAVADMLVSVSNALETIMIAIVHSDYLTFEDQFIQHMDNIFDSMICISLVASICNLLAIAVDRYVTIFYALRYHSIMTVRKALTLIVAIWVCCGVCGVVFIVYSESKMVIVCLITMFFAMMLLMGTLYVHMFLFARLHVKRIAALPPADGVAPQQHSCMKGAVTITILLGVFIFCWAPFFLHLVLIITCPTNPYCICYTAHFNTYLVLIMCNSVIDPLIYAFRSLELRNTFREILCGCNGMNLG
In short: as §1

Human Melanocortin (MC4) = molecular target: T4, Human Melanocortin (MC4) (Homo sapiens, UniProt P32245); assay: Radioligand binding, human melanocortin MC4 membranes, FlashPlate, [125I]-NDP-αMSH
T4 construct: purchased Perkin Elmer Biosignal
T4 sequence (P32245 whole entry): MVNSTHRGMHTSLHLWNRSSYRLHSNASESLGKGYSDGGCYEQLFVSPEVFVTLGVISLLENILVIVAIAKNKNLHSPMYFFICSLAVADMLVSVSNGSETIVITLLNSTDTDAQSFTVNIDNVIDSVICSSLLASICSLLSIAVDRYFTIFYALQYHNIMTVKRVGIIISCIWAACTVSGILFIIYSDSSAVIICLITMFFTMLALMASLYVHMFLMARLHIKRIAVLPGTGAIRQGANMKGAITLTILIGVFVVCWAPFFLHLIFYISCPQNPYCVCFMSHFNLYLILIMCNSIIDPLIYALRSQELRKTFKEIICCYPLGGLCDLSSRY
In short: as §1

Human melanocortin (MC5) = molecular target: T5, Human melanocortin (MC5) (Homo sapiens, UniProt P33032); assay: Radioligand binding, human melanocortin MC5 membranes, FlashPlate, [125I]-NDP-αMSH
T5 construct: purchased Perkin Elmer Biosignal
T5 sequence (P33032 whole entry): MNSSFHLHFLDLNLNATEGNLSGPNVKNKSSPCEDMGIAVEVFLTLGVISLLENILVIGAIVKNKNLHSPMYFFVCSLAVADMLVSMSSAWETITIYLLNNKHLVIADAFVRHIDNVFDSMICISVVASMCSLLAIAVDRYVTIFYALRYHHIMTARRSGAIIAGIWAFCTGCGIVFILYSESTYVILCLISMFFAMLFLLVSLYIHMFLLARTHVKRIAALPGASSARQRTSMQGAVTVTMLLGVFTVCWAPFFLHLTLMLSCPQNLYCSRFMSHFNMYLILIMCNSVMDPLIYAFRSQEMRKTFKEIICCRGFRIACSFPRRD
In short: as §1

[1] = molecular target: T6, Human melanin-concentrating hormone (MCH1) (Homo sapiens, UniProt Q99705); assay: Radioligand binding, human melanin-concentrating hormone MCH1 membranes, FlashPlate, [125I]-S36057
T6 construct: purchased Perkin Elmer Biosignal
T6 sequence (Q99705 whole entry): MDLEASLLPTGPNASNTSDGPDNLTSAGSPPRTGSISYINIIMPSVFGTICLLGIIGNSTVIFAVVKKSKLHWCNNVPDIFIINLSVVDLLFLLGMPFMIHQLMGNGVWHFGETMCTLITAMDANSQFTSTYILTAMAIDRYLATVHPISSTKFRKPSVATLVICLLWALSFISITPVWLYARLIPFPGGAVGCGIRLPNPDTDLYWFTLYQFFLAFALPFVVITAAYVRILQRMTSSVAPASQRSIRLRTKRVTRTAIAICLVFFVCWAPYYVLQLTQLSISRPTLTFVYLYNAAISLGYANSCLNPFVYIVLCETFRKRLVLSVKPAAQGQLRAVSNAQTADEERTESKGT
In short: as §1

Human μ-opioid (MOP) = molecular target: T7, Human μ-opioid (MOP) (Homo sapiens, UniProt P35372); assay: Radioligand binding, human μ-opioid (MOP) membranes, FlashPlate, [3H]-Naloxone
T7 construct: purchased Perkin Elmer Biosignal
T7 sequence (P35372 whole entry): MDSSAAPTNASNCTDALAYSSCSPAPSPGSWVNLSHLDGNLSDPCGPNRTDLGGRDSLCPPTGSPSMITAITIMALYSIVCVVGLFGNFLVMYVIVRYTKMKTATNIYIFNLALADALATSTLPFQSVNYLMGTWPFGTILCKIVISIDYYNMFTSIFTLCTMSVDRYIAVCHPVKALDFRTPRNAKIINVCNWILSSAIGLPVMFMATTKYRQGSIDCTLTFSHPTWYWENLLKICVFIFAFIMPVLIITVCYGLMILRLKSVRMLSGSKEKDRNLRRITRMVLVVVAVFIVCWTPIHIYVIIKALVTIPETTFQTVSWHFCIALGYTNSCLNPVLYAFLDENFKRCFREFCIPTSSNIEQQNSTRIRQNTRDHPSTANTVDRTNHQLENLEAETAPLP
In short: as §1

Human neurokinin (NK1) = molecular target: T8, Human neurokinin (NK1) (Homo sapiens, UniProt P25103); assay: Radioligand binding, human neurokinin NK1 membranes, filtration, [125I]-Substance P
T8 construct: purchased Perkin Elmer Biosignal
T8 sequence (P25103 whole entry): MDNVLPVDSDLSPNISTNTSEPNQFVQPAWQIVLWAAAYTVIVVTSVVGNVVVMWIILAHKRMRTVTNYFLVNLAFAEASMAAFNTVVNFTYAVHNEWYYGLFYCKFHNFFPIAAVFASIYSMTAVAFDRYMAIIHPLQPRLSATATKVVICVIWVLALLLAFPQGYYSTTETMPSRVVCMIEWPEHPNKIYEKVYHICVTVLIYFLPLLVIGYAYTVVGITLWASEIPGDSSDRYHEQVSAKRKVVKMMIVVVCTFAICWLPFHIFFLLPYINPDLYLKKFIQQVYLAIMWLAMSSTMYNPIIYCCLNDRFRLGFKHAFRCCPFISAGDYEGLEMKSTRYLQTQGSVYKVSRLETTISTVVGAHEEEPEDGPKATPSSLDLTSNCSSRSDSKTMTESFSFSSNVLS
In short: as §2

[2] = molecular target: T9, Human neuropeptide Y (NPY-Y1) (Homo sapiens, UniProt P25929); assay: Radioligand binding, human neuropeptide Y NPY-Y1 membranes, FlashPlate, [125I]-PYY
T9 construct: purchased Perkin Elmer Biosignal
T9 sequence (P25929 1-384): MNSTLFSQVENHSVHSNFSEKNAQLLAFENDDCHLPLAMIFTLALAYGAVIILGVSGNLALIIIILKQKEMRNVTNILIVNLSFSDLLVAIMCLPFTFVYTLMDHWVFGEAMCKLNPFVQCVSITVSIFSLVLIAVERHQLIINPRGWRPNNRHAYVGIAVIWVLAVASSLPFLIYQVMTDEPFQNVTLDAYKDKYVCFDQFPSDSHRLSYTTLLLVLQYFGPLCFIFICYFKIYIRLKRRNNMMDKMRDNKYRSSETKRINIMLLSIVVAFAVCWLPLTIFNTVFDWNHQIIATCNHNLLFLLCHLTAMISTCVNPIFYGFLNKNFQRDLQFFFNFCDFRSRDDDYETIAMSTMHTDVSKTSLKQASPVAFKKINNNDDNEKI
In short: as §1

Human opioid (ORL1) = molecular target: T10, Human opioid (ORL1) (Homo sapiens, UniProt P41146); assay: Radioligand binding, human opioid ORL1 membranes, FlashPlate, [125I]-Nociceptin
T10 construct: purchased Perkin Elmer Biosignal
T10 sequence (P41146 whole entry): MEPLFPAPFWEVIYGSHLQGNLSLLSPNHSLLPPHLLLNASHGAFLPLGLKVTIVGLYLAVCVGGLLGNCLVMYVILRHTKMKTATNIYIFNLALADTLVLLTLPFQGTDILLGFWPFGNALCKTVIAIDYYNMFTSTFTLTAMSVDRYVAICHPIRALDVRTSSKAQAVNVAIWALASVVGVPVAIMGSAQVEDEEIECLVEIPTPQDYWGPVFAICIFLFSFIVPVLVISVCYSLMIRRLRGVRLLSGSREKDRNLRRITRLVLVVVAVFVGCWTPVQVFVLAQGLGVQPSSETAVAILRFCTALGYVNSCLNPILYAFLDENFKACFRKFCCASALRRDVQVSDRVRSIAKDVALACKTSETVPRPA
In short: as §1

Mouse urotensin (mUR2) = molecular target: T11, Mouse urotensin (mUR2) (Mus musculus, UniProt Q8VIH9); assay: Radioligand binding, mouse urotensin mUR2 membranes, FlashPlate, [125I]-Urotensin II
T11 construct: purchased Perkin Elmer Biosignal
T11 sequence (Q8VIH9 1-385): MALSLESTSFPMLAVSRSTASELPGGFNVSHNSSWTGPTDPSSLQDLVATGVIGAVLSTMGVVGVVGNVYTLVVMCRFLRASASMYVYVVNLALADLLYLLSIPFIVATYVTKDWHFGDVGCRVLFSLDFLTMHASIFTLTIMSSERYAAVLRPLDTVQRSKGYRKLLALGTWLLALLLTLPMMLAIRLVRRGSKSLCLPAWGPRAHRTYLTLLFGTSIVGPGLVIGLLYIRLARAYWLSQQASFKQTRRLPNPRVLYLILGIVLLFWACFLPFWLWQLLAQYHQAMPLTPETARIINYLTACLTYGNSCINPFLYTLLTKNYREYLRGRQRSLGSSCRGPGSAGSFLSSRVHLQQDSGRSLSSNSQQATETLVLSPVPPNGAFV
In short: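 Cloned mouse urotensin (mUR2) receptor membranes from Perkin Elmer Biosignal were immobilized in FlashPlate microplates using a proprietary coating. Each well got 19.5 μl buffer, then 0.5 μl of DMSO, reference ligand, or compound. Adding 5 μl of [125I]-Urotensin II, diluted to 5× final concentration in binding buffer, started binding. Plates were sealed with TopSeal-A and incubated 1 hour at room temperature in the dark. Wells were counted for 30 seconds each on a TopCount after a 60-second delay, and percentage inhibition was calculated.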

T1 sequence (P41143 whole entry): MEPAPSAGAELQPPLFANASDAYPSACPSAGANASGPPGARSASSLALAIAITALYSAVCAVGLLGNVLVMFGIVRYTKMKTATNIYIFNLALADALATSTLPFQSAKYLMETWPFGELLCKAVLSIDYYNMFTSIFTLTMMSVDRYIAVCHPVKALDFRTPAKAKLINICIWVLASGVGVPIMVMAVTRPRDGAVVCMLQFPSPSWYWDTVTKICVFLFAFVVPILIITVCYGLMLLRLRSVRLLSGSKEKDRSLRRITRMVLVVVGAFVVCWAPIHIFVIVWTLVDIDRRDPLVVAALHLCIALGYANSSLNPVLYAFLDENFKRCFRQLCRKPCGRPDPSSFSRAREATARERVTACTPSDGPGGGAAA

## COCC1OC(OCc2ccccc2)C(NC(=O)CN)C(OCc2ccc(Cl)cc2)C1O (stereo not shown) [compound 176]
Human δ-opioid (DOP); [3H]-Bremazocine
  A1 radioligand binding, percentage inhibition: − (“−” indicates less than 50% inhibition at 10 μM)
Human κ-Opioid (KOP); [3H]-Diprenorphine
  A2 radioligand binding, percentage inhibition: − (“−” indicates less than 50% inhibition at 10 μM)
Human Melanocortin (MC3); [125I]-NDP-αMSH
  A3 radioligand binding, percentage inhibition: − (“−” indicates less than 50% inhibition at 10 μM)
Human Melanocortin (MC4); [125I]-NDP-αMSH
  A4 radioligand binding, percentage inhibition: − (“−” indicates less than 50% inhibition at 10 μM)
Human melanocortin (MC5); [125I]-NDP-αMSH
  A5 radioligand binding, percentage inhibition: − (“−” indicates less than 50% inhibition at 10 μM)
[1]; [125I]-S36057
  A6 radioligand binding, percentage inhibition: − (“−” indicates less than 50% inhibition at 10 μM)
Human μ-opioid (MOP); [3H]-Naloxone
  A7 radioligand binding, percentage inhibition: − (“−” indicates less than 50% inhibition at 10 μM)
Human neurokinin (NK1); [125I]-Substance P
  A8 radioligand binding, percentage inhibition: + (“+” indicates greater than 50% inhibition at 10 μM)
[2]; [125I]-PYY
  A9 radioligand binding, percentage inhibition: − (“−” indicates less than 50% inhibition at 10 μM)
Human opioid (ORL1); [125I]-Nociceptin
  A10 radioligand binding, percentage inhibition: − (“−” indicates less than 50% inhibition at 10 μM)
Mouse urotensin (mUR2); [125I]-Urotensin II
  A11 radioligand binding, percentage inhibition: − (“−” indicates less than 50% inhibition at 10 μM)

## CO[C@H]1[C@H](O)[C@@H](COCc2ccc(-c3ccccc3)cc2)OC(OCc2cccc(O)c2)[C@@H]1NC(=O)CNC(=N)N (stereo partly shown) [compound 162]
Human δ-opioid (DOP); [3H]-Bremazocine
  A1 radioligand binding, percentage inhibition: − (“−” indicates less than 50% inhibition at 10 μM)
Human κ-Opioid (KOP); [3H]-Diprenorphine
  A2 radioligand binding, percentage inhibition: − (“−” indicates less than 50% inhibition at 10 μM)
Human Melanocortin (MC3); [125I]-NDP-αMSH
  A3 radioligand binding, percentage inhibition: − (“−” indicates less than 50% inhibition at 10 μM)
Human Melanocortin (MC4); [125I]-NDP-αMSH
  A4 radioligand binding, percentage inhibition: − (“−” indicates less than 50% inhibition at 10 μM)
Human melanocortin (MC5); [125I]-NDP-αMSH
  A5 radioligand binding, percentage inhibition: − (“−” indicates less than 50% inhibition at 10 μM)
[1]; [125I]-S36057
  A6 radioligand binding, percentage inhibition: − (“−” indicates less than 50% inhibition at 10 μM)
Human μ-opioid (MOP); [3H]-Naloxone
  A7 radioligand binding, percentage inhibition: − (“−” indicates less than 50% inhibition at 10 μM)
Human neurokinin (NK1); [125I]-Substance P
  A8 radioligand binding, percentage inhibition: + (“+” indicates greater than 50% inhibition at 10 μM)
[2]; [125I]-PYY
  A9 radioligand binding, percentage inhibition: − (“−” indicates less than 50% inhibition at 10 μM)
Human opioid (ORL1); [125I]-Nociceptin
  A10 radioligand binding, percentage inhibition: − (“−” indicates less than 50% inhibition at 10 μM)
Mouse urotensin (mUR2); [125I]-Urotensin II
  A11 radioligand binding, percentage inhibition: − (“−” indicates less than 50% inhibition at 10 μM)

## CO[C@H]1[C@H](O)[C@@H](COCc2ccc(Cl)cc2)OC(OCc2ccc(-c3ccccc3)cc2)[C@@H]1NC(=O)CNC(=N)N (stereo partly shown) [compound 62]
Human δ-opioid (DOP); human δ-opioid (DOP) membranes
  A1 radioligand binding inhibition: − (“−” indicates less than 50% inhibition at 10 μM)
Human κ-Opioid (KOP); human κ-opioid (KOP) membranes
  A2 radioligand binding inhibition: − (“−” indicates less than 50% inhibition at 10 μM)
Human Melanocortin (MC3); human melanocortin MC3 membranes
  A3 radioligand binding inhibition: + (“+” indicates greater than 50% inhibition at 10 μM)
Human Melanocortin (MC4); human melanocortin MC4 membranes
  A4 radioligand binding inhibition: + (“+” indicates greater than 50% inhibition at 10 μM)
Human melanocortin (MC5); human melanocortin MC5 membranes
  A5 radioligand binding inhibition: + (“+” indicates greater than 50% inhibition at 10 μM)
[1]; human MCH1 membranes
  A6 radioligand binding inhibition: + (“+” indicates greater than 50% inhibition at 10 μM)
Human μ-opioid (MOP); human μ-opioid (MOP) membranes
  A7 radioligand binding inhibition: − (“−” indicates less than 50% inhibition at 10 μM)
Human neurokinin (NK1); human neurokinin NK1 membranes
  A8 radioligand binding inhibition: + (“+” indicates greater than 50% inhibition at 10 μM)
[2]; human NPY-Y1 membranes
  A9 radioligand binding inhibition: − (“−” indicates less than 50% inhibition at 10 μM)
Human opioid (ORL1); human ORL1 membranes
  A10 radioligand binding inhibition: + (“+” indicates greater than 50% inhibition at 10 μM)
Mouse urotensin (mUR2); mouse urotensin mUR2 membranes
  A11 radioligand binding inhibition: − (“−” indicates less than 50% inhibition at 10 μM)

## NCCC(=O)NC1C(OCc2ccc(Cl)cc2)OC(COCc2ccccc2)C(O)C1OCc1ccccc1 (single isomer, unassigned) [compound 485]
Human δ-opioid (DOP); [3H]-Bremazocine
  A1: inhibition of radioligand binding, human δ-opioid (DOP): − (“−” indicates less than 50% inhibition at 10 μM)
Human κ-Opioid (KOP); [3H]-Diprenorphine
  A2: inhibition of radioligand binding, human κ-opioid (KOP): − (“−” indicates less than 50% inhibition at 10 μM)
Human Melanocortin (MC3); [125I]-NDP-αMSH
  A3: inhibition of radioligand binding, human melanocortin (MC3): − (“−” indicates less than 50% inhibition at 10 μM)
Human Melanocortin (MC4); [125I]-NDP-αMSH
  A4: inhibition of radioligand binding, human melanocortin (MC4): − (“−” indicates less than 50% inhibition at 10 μM)
Human melanocortin (MC5); [125I]-NDP-αMSH
  A5: inhibition of radioligand binding, human melanocortin (MC5): − (“−” indicates less than 50% inhibition at 10 μM)
[1]; [125I]-S36057
  A6: inhibition of radioligand binding, human melanin-concentrating hormone (MCH1): − (“−” indicates less than 50% inhibition at 10 μM)
Human μ-opioid (MOP); [3H]-Naloxone
  A7: inhibition of radioligand binding, human μ-opioid (MOP): − (“−” indicates less than 50% inhibition at 10 μM)
Human neurokinin (NK1); [125I]-Substance P
  A8: inhibition of radioligand binding, human neurokinin (NK1): + (“+” indicates greater than 50% inhibition at 10 μM)
[2]; [125I]-PYY
  A9: inhibition of radioligand binding, human neuropeptide Y (NPY-Y1): − (“−” indicates less than 50% inhibition at 10 μM)
Human opioid (ORL1); [125I]-Nociceptin
  A10: inhibition of radioligand binding, human opioid (ORL1): − (“−” indicates less than 50% inhibition at 10 μM)
Mouse urotensin (mUR2); [125I]-Urotensin II
  A11: inhibition of radioligand binding, mouse urotensin (mUR2): − (“−” indicates less than 50% inhibition at 10 μM)

## CSC1O[C@H](COCc2ccc3ccccc3c2)[C@@H](O)[C@@H](OCc2ccc(Cl)cc2)[C@H]1NC(=O)CCNC(=N)N (stereo partly shown) [compound 283]
Human δ-opioid (DOP); [3H]-Bremazocine, FlashPlate
  A1: inhibition of radioligand binding: − (“−” indicates less than 50% inhibition at 10 μM)
Human κ-Opioid (KOP); [3H]-Diprenorphine, filtration
  A2: inhibition of radioligand binding: − (“−” indicates less than 50% inhibition at 10 μM)
Human Melanocortin (MC3); [125I]-NDP-αMSH, FlashPlate
  A3: inhibition of radioligand binding: − (“−” indicates less than 50% inhibition at 10 μM)
Human Melanocortin (MC4); [125I]-NDP-αMSH, FlashPlate
  A4: inhibition of radioligand binding: + (“+” indicates greater than 50% inhibition at 10 μM)
Human melanocortin (MC5); [125I]-NDP-αMSH, FlashPlate
  A5: inhibition of radioligand binding: + (“+” indicates greater than 50% inhibition at 10 μM)
[1]; [125I]-S36057, FlashPlate
  A6: inhibition of radioligand binding: − (“−” indicates less than 50% inhibition at 10 μM)
Human μ-opioid (MOP); [3H]-Naloxone, FlashPlate
  A7: inhibition of radioligand binding: − (“−” indicates less than 50% inhibition at 10 μM)
Human neurokinin (NK1); [125I]-Substance P, filtration
  A8: inhibition of radioligand binding: + (“+” indicates greater than 50% inhibition at 10 μM)
[2]; [125I]-PYY, FlashPlate
  A9: inhibition of radioligand binding: − (“−” indicates less than 50% inhibition at 10 μM)
Human opioid (ORL1); [125I]-Nociceptin, FlashPlate
  A10: inhibition of radioligand binding: − (“−” indicates less than 50% inhibition at 10 μM)
Mouse urotensin (mUR2); [125I]-Urotensin II, FlashPlate
  A11: inhibition of radioligand binding: − (“−” indicates less than 50% inhibition at 10 μM)
